From patent US20090076130A1, “COMPOUNDS FOR THE INHIBITION OF HISTONE DEACETYLASE” (NATUREWISE BIOTECH & MEDICALS CORPORATION, priority 2007, published 2009)

Columns and labels:
SMN2 protein = details: fibroblast cells derived from SMA patients, 64 hours of treatment; cited from earlier work
[1] = system: human breast MCF-7 cancer cells; test: Growth and morphology of breast cancer MCF-7 cells; type: cell-based
Method: The breast cancer MCF-7 cells, were cultured in Dulbecco's modified Eagle's medium (DMEM; Gibco) supplemented with penicillin G, streptomycin sulphate, 0.5 mM of L-glutamine and 10% fetal bovine serum (FBS; Gibco) at 37° C., 5% CO2 and 95% relative humidity. The cells were seeded at a density of 3×10^5 per well of 6-well plates. After 24 hours, the cells were treated with different concentrations of compound NBM-HD-1 and 4 mM sodium butyrate being used as the positive control. The cells were observed after 48 hours and counted after 96 hours. […] In FIG. 8(A), after the cells were incubated with 2.5 μg/mL (FIG. 8(A)-b), 5 μg/mL (FIG. 8(A)-c) and 10 μg/mL (FIG. 8(A)-d) of NBM-HD-1 for 48 hours, the density of MCF-7 cells reduced dramatically in comparison with that of the control group (FIG. 8(A)-a). The morphology of the MCF-7 cells in the experimental group changed in comparison with that in the control group. […] The results of the cell counting (FIG. 8(B)) indicate that, similar to sodium butyrate, NBM-HD-1 inhibits cell growth.
MCF-7 cancer cells were seeded at a density of 3×10^5 per well in 6-well plates. After 24 hours, the cells were treated with different concentrations of compound NBM-HD-2 and 4 mM sodium butyrate being used as the positive control. The cells were observed and counted after 72 hours. […] In FIG. 13(A), after the cells were incubated with 2.5 μg/mL (FIG. 13(A)-c), 5 μg/mL (FIG. 13(A)-d), 7.5 μg/mL (FIG. 13(A)-e) and 10 μg/mL (FIG. 13(A)-f) of NBM-HD-2 for 72 hours, the density of MCF-7 cells reduced dramatically in comparison with that of the control group (FIG. 13(A)-a). The morphology of the MCF-7 cells in the experimental group changed in comparison with that in the control group.
MCF-7 cancer cells were seeded at a density of 3×10^5 per well of 6-well plates. After 24 hours, the cells were treated with different concentrations of compound NBM-HD-3 and 4 mM sodium butyrate, which was being used as the positive control. The cells were observed and counted after 72 hours. […] In FIG. 14(A), after the cells were incubated with 2.5 μg/mL (FIG. 14(A)-c), 5 μg/mL (FIG. 14(A)-d), 7.5 μg/mL (FIG. 14(A)-e) and 10 μg/mL (FIG. 14(A)-f) of NBM-HD-3 for 72 hours, the density of MCF-7 cells reduced dramatically in comparison with that of the control group (FIG. 14(A)-a). The morphology of the MCF-7 cells in the experimental group changed in comparison with that in the control group. […] The results of the cell counting (FIG. 14(B)) indicate that, similar to sodium butyrate, NBM-HD-3 inhibits cell growth.

cyclin D1 = details: MCF-7 breast cancer cells; cited from earlier work
[2] = system: human giloblastoma DBTRG-05MG cancer cells; test: Growth and morphology of human giloblastoma DBTRG-05MG cancer cells; type: cell-based; details: NBM-HD-1 2.5, 5, 10 μg/mL or 4 mM sodium butyrate, 72 hours
Method: The human giloblastoma DBTRG-05MG cancer cells were cultured in RPMI medium 1640 (Gibco) supplemented with penicillin G, streptomycin sulphate, 0.5 mM of L-glutamine and 10% fetal bovine serum (FBS; Gibco), 100 mh/L sodium pyruvate (Gibco), and 1% NEAA (Gibco) at 37° C., 5% CO2 and 95% relative humidity. For these experiments, the cells were seeded at a density of 3×10^5 per well of 6-well plates. After 24 hours, the cells were treated with different concentrations of NBM-HD-1 and 4 mM sodium butyrate. The cells were observed and counted after 72 hours. […] In 05MG cells (FIG. 7(A)), after incubation with 2.5 μg/mL (FIG. 7(A)-b), 5 μg/mL (FIG. 7(A)-c) and 10 μg/mL (FIG. 7(A)-d) of NBM-HD-1 for 72 hours, the density of the cells reduced dramatically in comparison with that of the control group (FIG. 7(A)-a). The 05MG cells in the experimental group also changed to become longer than those in the control group.

[3] = system: transgenic mouse model of spinal and bulbar muscular atrophy; details: cited from earlier work
acetylated histone H4 = test: Western blotting of hyperacetylated histone H4 in C6 glioma cells; type: cell-based, rat
Method: Accumulation of hyperacetylated histone H4 was analyzed in the cell lysates by using Western Blotting and the antibody directed against acetylated histone H4 (Upstate). The C6 glioma cells were seeded at a density of 1×10^6 per 10 cm culture dish. After 24 hours, the cells were treated with 10 μg/mL of NBM-HD-1 or 4 mM sodium butyrate for several hours. The whole-cell lysates were prepared by using denaturing SDS sample buffer and then separated on 15% SDS-polyacrylamide gels. […] The amount of acetylated histones was hardly detectable in untreated C6 glioma cells. The amount of acetylated histone H4 of the cells treated with 4 mM sodium butyrate for 2 hours increased. Sodium butyrate was then removed from the culture medium. After 6 hours, the amount of acetylated histone H4 decreased. The accumulation of acetylated histone H4 increased in the cells treated with NBM-HD-1 for 2 hours. […] The highest histone acetylation appeared at 6 hours after the compound had been removed. […] Because NBM-HD-1 is more hydrophobic than sodium butyrate, NBM-HD-1 can be retained in the cells longer than sodium butyrate and continuously induce the acetylation of histone H4.

[4] = compound 2.5, 5, 7.5, 10 μg/mL or 4 mM sodium butyrate, 72 hours

CN(C)c1ccc(C(=O)NCCCCCCC(=O)NO)cc1 [M344]
up-regulation of SMN2 protein expression (SMN2 protein): up to 7 fold

COc1cc2c(c(O)c1CCC(C)(C)O)C(=O)C[C@@H](c1ccc(OC)c(OC)c1C/C=C(\C)CCCC(C)(C)O)O2 [NBM-HD-3]
morphology of MCF-7 cancer cells ([1]; 2.5, 5, 7.5, 10 μg/mL, 72 hours): change their morphology | growth of MCF-7 cancer cells [1, 4]: can inhibit the growth of MCF-7 cancer cells in a dose-dependent manner

CC(/C=C/C(=O)NO)=C\[C@@H](C)C(=O)c1ccc(N(C)C)cc1 [Trichostatin A]
cyclin D1 degradation (cyclin D1): induce ubiquitin-dependent cyclin D1 degradation

CCCC(=O)[O-].[Na+] [sodium butyrate, reference compound]
growth of 05MG cancer cells [2]: could inhibit the proliferation of 05MG cancer cells | phenotypic expression [3]: ameliorates phenotypic expression | accumulation of hyperacetylated histone H4 (acetylated histone H4; 10 μg/mL NBM-HD-1 or 4 mM sodium butyrate, 2 hours): can increase the accumulation of hyperacetylated histone H4 | amount of acetylated histone H4 after removal of the compound (acetylated histone H4; after 2 hours treatment and removal from the culture medium, up to 6 hours): decreased | growth of MCF-7 cancer cells ([1]; NBM-HD-1 2.5, 5, 10 μg/mL or 4 mM sodium butyrate, observed after 48 hours, counted after 96 hours): able to inhibit the growth of MCF-7 cells | growth of MCF-7 cancer cells [1, 4]: able to inhibit the growth of MCF-7 cells
